From US20120302618A1, “USE OF BENZYDAMINE IN THE TREATMENT OF P40-DEPENDENT DISEASES” (AZIENDE CHIM. RIUN. ANG. FRANC. A.C.R.A.F. S.p.A., priority 2009, published 2012)
Values joined by “and” are separate entries in the source; they are usually repeats but may differ in a detail not shown here. Equal values may be shown once.

Columns and labels:
p40 [1] = test: Inhibition of p40 mRNA expression by LPS-stimulated MonoMac6 cells (real-time PCR); type: cell-based, human; settings: 75 μM, 1 h preincubation, LPS 100 ng/ml for 4 h
Method: The capacity of benzydamine to inhibit the expression of p40 by lipopolysaccharide (LPS)-stimulated MonoMac6 cells was evaluated. The cells were placed in 96-well plates at a concentration of 50 000 cells/well. The compound was tested at the concentration of 75 μM and incubated for 1 hour. The cells were then stimulated with LPS (100 ng/ml) for 4 hours. The total RNA was extracted from the cell pellet using the RNeasy mini kit (Qiagen), reverse-transcribed with the TaqMan Reverse transcription reagents synthesis kit (Applied Biosystems) and the cDNA obtained was used for the real-time PCR reaction. The amplification was obtained in 96-well plates using the ABI Prism 7000 sequence detection system (Applied Biosystems), by applying the following temperature profile: 50° C. for 2 minutes, 95° C. for 10 minutes and 45 cycles at 95° C. for 15 seconds and 60° C. for 1 minute. For the amplification, a set of primers and probe specific for human p40 was used (Applied Biosystems, RefSeq NM_002187.2). A set of primers and probe for β-actin was used in separate wells as an internal control of the samples for the purposes of normalization. Once the reaction had taken place, the fluorescence data were analysed using the ABI Prism 7000 SDS software, by calculating the threshold cycle (Ct) for each sample and subsequently performing a relative quantification via the ΔΔCt method.

TNF [2] = settings: mice; cited from earlier work
p40 [3] = test: Inhibition of p40 protein production by anti-CD3 stimulated human PBMCs (Luminex); type: cell-based
Method: (§1) The capacity of the compound to inhibit the production of the protein p40 by anti-CD3 stimulated human PBMCs (peripheral blood mononuclear cells) was evaluated. The cells were placed in 96-well plates at a concentration of 2×10^5 cells/well. The compound was tested on a 6-point ½-log dose curve (in the range 0.3-100 μM) and incubated for 1 hour. The cells were then stimulated with anti-CD3 (4 μg/ml) for 48 hours. The amount of p40 produced was measured in the supernatants, suitably diluted with buffer, by using the Luminex 100 system.

TNF [4] = test: Inhibition of TNF production by anti-CD3 stimulated human PBMCs (Luminex); type: cell-based
Method: as §1, with “expression” for “production”, “TNF” for “p40”

[5] = 0 μM (so in the source), anti-CD3 4 μg/ml 48 h, human PBMCs
[6] = PBMC, 1 μM, anti-CD3 4 μg/ml 48 h, human PBMCs
[7] = PBMC, 3 μM, anti-CD3 4 μg/ml 48 h, human PBMCs
[8] = PBMC, 10 μM, anti-CD3 4 μg/ml 48 h, human PBMCs
[9] = PBMC, 30 μM, anti-CD3 4 μg/ml 48 h, human PBMCs
[10] = PBMC, 100 μM, anti-CD3 4 μg/ml 48 h, human PBMCs
[11] = PBMC, anti-CD3 stimulated human PBMCs, 48 h
[12] = dose curve 0.3-100 μM, human PBMCs

- IC50 (p40 [3]; [11]): 10.1 µM
- IC50 (TNF [4]; [11]): 43.1 µM
- IC50 for TNF relative to IC50 for p40 (TNF [4]; anti-CD3 stimulated human PBMCs): about 4 fold
SMILES: CN(C)CCCOc1nn(Cc2ccccc2)c2ccccc12 [Benzydamine]
- % inhibition of LPS-induced p40 mRNA expression (p40 [1]): 80%
- dose required for a significant inhibiting effect on TNF production (TNF [2]): 20 mg/kg and 40 mg/kg
- % inhibition of p40 production (p40 [3]; [5]): 0%
- inhibition at 1 µM (p40 [3]; [6]): 23%
- inhibition at 3 µM (p40 [3]; [7]): 24%
- inhibition at 10 µM (p40 [3]; [8]): 44%
- inhibition at 30 µM (p40 [3]; [9]): 97%
- inhibition at 100 µM (p40 [3]; [10]): 99%
- inhibition of anti-CD3 induced p40 production, range over dose curve (p40 [3]; [12]): 23-99%
- % inhibition of TNF production (TNF [4]; [5]): 7%
- inhibition at 1 µM (TNF [4]; [6]): 8%
- inhibition at 3 µM (TNF [4]; [7]): 12%
- inhibition at 10 µM (TNF [4]; [8]): 22%
- inhibition at 30 µM (TNF [4]; [9]): 44%
- inhibition at 100 µM (TNF [4]; [10]): 70%
- inhibition of anti-CD3 induced TNF production, range over dose curve (TNF [4]; [12]): 8-70%
